Assay results from patent publication US5378690A, “New renin-inhibitory oligopeptides, their preparation and their use” (Sankyo Company, Limited, priority 1986, dated 1995).

Target: T1, human renin (Homo sapiens, UniProt P00797)
T1 sequence (P00797 67-406): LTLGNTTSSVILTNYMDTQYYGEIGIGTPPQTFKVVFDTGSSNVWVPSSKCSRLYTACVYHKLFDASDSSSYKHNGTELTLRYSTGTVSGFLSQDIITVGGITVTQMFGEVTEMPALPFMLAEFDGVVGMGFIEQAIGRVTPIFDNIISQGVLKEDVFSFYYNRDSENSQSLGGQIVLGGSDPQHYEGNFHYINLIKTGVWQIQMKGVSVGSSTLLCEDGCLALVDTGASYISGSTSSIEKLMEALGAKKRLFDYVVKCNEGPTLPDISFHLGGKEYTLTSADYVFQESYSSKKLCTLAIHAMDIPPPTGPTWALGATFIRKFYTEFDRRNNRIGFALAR
Test: Inhibition of renin activity
Type: biochemical
Conditions: 1×10^-6 M of the test compound, sheep angiotensinogen, pH 7.3, 10 minutes at 37° C., mean of 3 or 4 experiments
Method: The ability of various compounds of the invention to inhibit the activity of renin was determined according to the following method, which follows essentially the procedure of Kokubu et al. [Hypertension, 5, 191-197 (1983)].
Specifically, each test compound was dissolved in 60% v/v aqueous ethanol. Human renin activity in the presence and absence of each compound was measured using sheep angiotensinogen. The total volume of 1 ml of assay mixture contained 0.1 mole/litre phosphate buffer (pH 7.3), human renin (equivalent to 0.5 ng angiotensin I per ml per minute), sheep angiotensinogen (equivalent to 200 ng angiotensin I) 1×10^-6 M of the test compound, 6% v/v ethanol and angiotensinase inhibitors (10 mmole/litre sodium ethylenediaminetetraacetate and 3.4 mmole/litre 8-hydroxyquinoline). The mixture was allowed to react for 10 minutes at 37° C., and then the reaction was stopped by placing the reaction tube in a boiling water bath for 5 minutes. The mixture was then centrifuged and the supernatant (0.05-0.1 ml) was used to assay remaining angiotensin I.
An identical experiment was carried out, as a control, except that the test compound was omitted. From the values obtained were calculated the % inhibition of renin activity achieved by each test compound. The results are shown in the following Table 9, in which the compounds of the invention are identified by the numbers of the Examples given hereafter in which are described their preparation. The values given are the mean of 3 or 4 experiments.

Row | Inhibitory Activity (%) | Compound
1 | 96.1% | N-{N-[N-(N-Benzyl-N-ethylaminoacetyl)-3-(1-naphthyl)-L-alanyl]-L-leucyl}-cyclostatin-(2-morpholinoethyl)amide [Example 69]
2 | 97.1% | N-{N-[N-(N-Benzyl-N-methylaminoacetyl)-3-(1-naphthyl)-L-alanyl]-L-tryptophyl}-cyclostatin-[3-(2-oxo-1-pyrrolidinyl)propyl]amide [Example 76]

More lines, now with the values behind:

Row | Compound | Inhibitory Activity (%)
3 | CCCCCCNC(=O)C[C@H](O)[C@H](CC1CCCCC1)NC(=O)[C@H](Cc1cscn1)NC(=O)[C@H](Cc1cccc2ccccc12)NC(=O)CN1CCOCC1 [Example 110, N-{N-[N-Morpholinoacetyl-3-(1-naphthyl)-L-alanyl]-3-(4-thiazolyl)-L-alanyl}-cyclostatin-hexylamide] | 98.3%
4 | CC(C)CCNC(=O)C[C@H](O)[C@H](CC1CCCCC1)NC(=O)[C@H](Cc1cscn1)NC(=O)[C@H](Cc1cccc2ccccc12)NC(=O)CN(C)Cc1ccccc1 [Example 111, N-{N-[N-(Benzyl-N-methylaminoacetyl)-3-(1-naphthyl)-L-alanyl]-3-(4-thiazolyl)-L-alanyl}-cyclostatin-isopentylamide] | 96.0%
5 | CCCCNC(=O)C[C@H](O)[C@H](CC1CCCCC1)NC(=O)[C@H](Cc1cscn1)NC(=O)[C@H](Cc1cccc2ccccc12)NC(=O)CN(C)C1CCCCC1 [Example 112, N-{N-[N-(N-Cyclohexyl-N-methylaminoacetyl)-3-(1-naphthyl)-L-alanyl]-3-(4-thiazolyl)-L-alanyl}-cyclostatin-butylamide] | 98.0%
6 | N-{N-[(2R)-2-(1-Naphthylmethyl)-3-thiomorpholinocarbonylpropionyl]-3-(4-thiazolyl)-DL-alanyl}-cyclostatin-(2-morpholinoethyl)amide [Example 9] | 94.0%
